Reference: patent US11613517B2, “Amide prodrugs of small molecule nuclear receptor modulators” (OREGON HEALTH & SCIENCE UNIVERSITY, priority 2018, dated 2023)

Molecular target: T1, FAAH (Mus musculus, UniProt O08914)
T1 construct: from tissue; host or cells: live wild type male C57Bl/6 mice (in vivo; brain and serum analysed)
T1 sequence (O08914 1-579): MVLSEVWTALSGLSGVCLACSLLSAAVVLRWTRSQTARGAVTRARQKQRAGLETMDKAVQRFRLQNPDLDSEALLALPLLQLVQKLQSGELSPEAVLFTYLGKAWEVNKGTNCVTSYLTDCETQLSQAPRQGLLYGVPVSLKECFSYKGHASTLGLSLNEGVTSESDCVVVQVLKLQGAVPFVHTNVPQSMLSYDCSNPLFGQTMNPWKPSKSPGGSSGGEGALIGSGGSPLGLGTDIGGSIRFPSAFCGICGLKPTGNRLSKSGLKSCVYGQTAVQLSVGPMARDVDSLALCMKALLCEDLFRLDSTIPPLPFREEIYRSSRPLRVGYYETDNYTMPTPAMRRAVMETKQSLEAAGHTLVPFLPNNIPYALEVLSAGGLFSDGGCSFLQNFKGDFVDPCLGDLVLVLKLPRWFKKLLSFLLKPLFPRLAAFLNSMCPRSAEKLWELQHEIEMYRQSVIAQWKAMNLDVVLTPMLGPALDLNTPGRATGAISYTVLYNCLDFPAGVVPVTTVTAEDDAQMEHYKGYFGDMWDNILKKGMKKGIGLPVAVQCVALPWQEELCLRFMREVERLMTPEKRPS
Assay: FAAH Inhibition Study: prodrug alone or after FAAH inhibitor PF-3845 in mice
Details: FIG. 12, in vivo
Protocol: Two cohorts of three mice were injected once intraperitoneally (i.p.) with prodrug at 9.14 μmol/kg. One cohort was injected 1 h prior to prodrug administration with a 1 mg/kg dose of FAAH inhibitor PF-3845. Euthanasia was performed on each cohort 1 h after injection with the prodrug and the tissues and blood were harvested. Tissues were immediately frozen and blood was kept on ice for a minimum of 30 min and then spun down at 7500×g for 15 min. Serum ([…]) was collected and was stored with tissues at −80° C. until samples were processed. Samples were processed as described above.
All parent drugs and d6-sobetirome internal standard were analyzed using a QTRAP 4000 hybrid/triple quadrupole linear ion trap mass spectrometer (Applied biosystems) with electrospray ionization (ESI) in negative mode. The mass spectrometer was interfaced to a Shimadzu (Columbia, Md.) SIL-20AC XR auto-sampler followed by 2 LC-20AD XR LC pumps and analysis on an Applied Biosystems/SCIEX QTRAP 4000 instrument (Foster City, Calif.). […] Data were acquired using SCIEX Analyst 1.6.2 software (Framingham, Mass., USA) and analyzed using Multiquant 3.0.2
Statistical analyses were performed using the two-tailed Student t test comparing individual groups with the appropriate vehicle group or as noted. […] AUC values were calculated and data was plotted and analyzed using GraphPad Prism 7. […]

In vivo validation as substrate for the FAAH enzyme: substrate for the FAAH enzyme
SMILES: CNC(=O)COc1cc(C)c(Cc2cc(C#Cc3ccc([N+](=O)[O-])cc3)c(O)c(C(C)C)c2)c(C)c1 [NRMA-2, 2-(4-(4-hydroxy-3-isopropyl-5-((4-nitrophenyl)ethynyl)benzyl)-3,5-dimethylphenoxy)-N-methylacetamide]
